Literature values as cited in PMC6343925, “Cholesterol re-organisation and lipid de-packing by arginine-rich cell penetrating peptides: Role in membrane translocation” (PLoS ONE, 2019).
No end group written: not given here.

Details: membranes contained PG; same experimental approach

| Compound | translocation into LUVs |
| --- | --- |
| RRWWRRWRR-NH2 [RW9] | able to translocate |
| N=C(N)NCCC[C@H](NC(=O)[C@H](CCCNC(=N)N)NC(=O)[C@H](CCCNC(=N)N)NC(=O)[C@H](CCCNC(=N)N)NC(=O)[C@H](CCCNC(=N)N)NC(=O)[C@H](CCCNC(=N)N)NC(=O)[C@H](CCCNC(=N)N)NC(=O)[C@H](CCCNC(=N)N)NC(=O)[C@@H](N)CCCNC(=N)N)C(N)=O [R9, Nona-arginine] | able to translocate |
